Assay results: US20080213815A1, “DIAGNOSING BREAST CANCER BY SEPRASE LEVEL” (DUBLIN CITY UNIVERSITY, priority 2007, published 2008)
Like-named read-outs stand apart in the source and are kept apart here. Where a SMILES comes first, the peptide text is derived from it. The star is where a group is joined. AFC = O=c1cc(C(F)(F)F)c2ccc(N*)cc2o1

Experiments:
Prolyl Oligopeptidase = biological target: T1, Prolyl Oligopeptidase (Homo sapiens, UniProt P48147)
T1 sequence (P48147 1-710): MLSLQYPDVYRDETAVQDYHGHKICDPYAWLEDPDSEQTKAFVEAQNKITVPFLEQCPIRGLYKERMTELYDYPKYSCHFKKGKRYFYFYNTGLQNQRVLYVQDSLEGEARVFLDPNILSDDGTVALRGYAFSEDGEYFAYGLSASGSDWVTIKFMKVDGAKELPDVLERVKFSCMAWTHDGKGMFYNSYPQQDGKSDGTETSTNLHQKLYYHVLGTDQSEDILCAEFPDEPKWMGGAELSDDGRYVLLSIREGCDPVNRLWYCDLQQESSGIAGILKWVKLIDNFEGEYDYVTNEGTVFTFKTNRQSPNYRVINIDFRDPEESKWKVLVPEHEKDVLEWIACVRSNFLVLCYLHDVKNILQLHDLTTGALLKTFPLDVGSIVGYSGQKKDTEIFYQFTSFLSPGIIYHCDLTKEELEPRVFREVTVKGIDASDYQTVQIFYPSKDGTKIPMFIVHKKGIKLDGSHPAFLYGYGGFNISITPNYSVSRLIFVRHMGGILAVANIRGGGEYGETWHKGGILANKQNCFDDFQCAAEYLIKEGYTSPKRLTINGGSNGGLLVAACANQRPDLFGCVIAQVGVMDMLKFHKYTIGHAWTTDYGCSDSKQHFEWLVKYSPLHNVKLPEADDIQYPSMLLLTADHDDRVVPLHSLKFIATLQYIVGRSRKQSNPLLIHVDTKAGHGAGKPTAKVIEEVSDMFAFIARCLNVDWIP

[1] = biological target: T2, PO (Prolyl Oligopeptidase) (Homo sapiens, UniProt P48147); experiment: Fluorimetric Z-Gly-Pro-AMC assay in serum with PO inhibitor; assay type: biochemical; details: JTP-4819 at a concentration of 4×10^−6M in the assay; 100 μM Z-Gly-Pro-AMC, 37° C.
T2 construct: from tissue; host or cells: serum
T2 sequence (P48147 1-710): T1 sequence (P48147 1-710)
Procedure: A 25 μl aliquot of serum was pre-incubated for 15 minutes at 37° C. with 5 μl of 2.5×10^−4M JTP-4819 in 10% v/v MeOH in a 96 well microtitre plate prior to substrate addition. Next, 100 μl of 100μM Z-Gly-Pro-AMC substrate in 4% MeOH was added to the sample and the microtitre plate was incubated at 37° C. for 60 mins. Reactions were terminated by the addition of 170 μl of 1.5M acetic acid. Blanks or negative controls were prepared by adding 170 μl of 1.5M acetic acid to 25 μl of enzyme sample prior to substrate addition and incubation at 37° C. for 60 mins. The assay is performed in triplicate and at three different times. […] This concentration is obtained by adding 5 μl of 2.5×10^−4 M JTP-4819 to the assay.
Fluorimetric analysis of these samples was achieved using a Perkin Elmer LS50 Fluorescence Spectrophotometer at excitation and emission wavelengths of 370 nm and 440 nm respectively. Excitation slit widths were maintained at 10 nm while emission slit widths were adjusted accordingly for the range being analysed.
End point measurements were allowed, as the enzyme assay was linear with respect to time and enzyme concentration up to 60 mins. Fluorimetric intensities observed were converted to nanomoles AMC released per minute per ml using the appropriate standard curve. Enzyme units were defined as nanomoles of AMC released per minute at 37° C.

Seprase = biological target: T3, Seprase (Homo sapiens, UniProt Q12884); experiment: Seprase activity towards fluorogenic substrates; assay type: biochemical; details: compared with substrate Z-Gly-Pro-AMC
T3 sequence (Q12884 1-760): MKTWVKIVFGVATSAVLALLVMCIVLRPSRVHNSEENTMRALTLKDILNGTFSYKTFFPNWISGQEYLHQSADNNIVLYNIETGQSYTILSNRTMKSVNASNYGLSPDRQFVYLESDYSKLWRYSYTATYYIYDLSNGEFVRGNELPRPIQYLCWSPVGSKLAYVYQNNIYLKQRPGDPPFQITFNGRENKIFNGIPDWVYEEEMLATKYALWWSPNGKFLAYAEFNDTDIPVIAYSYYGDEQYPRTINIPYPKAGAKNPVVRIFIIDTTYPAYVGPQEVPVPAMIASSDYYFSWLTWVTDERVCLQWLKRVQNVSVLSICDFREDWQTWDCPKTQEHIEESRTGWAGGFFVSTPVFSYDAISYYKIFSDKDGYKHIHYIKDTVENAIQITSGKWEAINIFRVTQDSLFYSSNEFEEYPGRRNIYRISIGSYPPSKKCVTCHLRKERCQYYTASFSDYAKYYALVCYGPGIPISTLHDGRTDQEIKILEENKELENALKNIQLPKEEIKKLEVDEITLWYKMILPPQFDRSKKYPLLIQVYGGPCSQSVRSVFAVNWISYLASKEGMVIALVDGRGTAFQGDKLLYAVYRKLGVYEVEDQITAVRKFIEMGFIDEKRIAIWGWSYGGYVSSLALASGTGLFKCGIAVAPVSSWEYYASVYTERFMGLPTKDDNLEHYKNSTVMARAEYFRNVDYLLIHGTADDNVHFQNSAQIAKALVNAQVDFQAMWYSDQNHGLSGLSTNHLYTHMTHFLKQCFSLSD
Excerpt: The substrate used for the test is Benzyloxycarbonyl (Z)-Gly-Pro-7-amino-4-methylcoumarin (AMC) [Z-Gly-Pro-AMC]. […] This substrate is for a completely different enzyme, namely DPPII.

[2] = Prolyl Oligopeptidase specific inhibitors, Table 5; read-out: Potency IC50; cited from earlier work
[3] = Prolyl Oligopeptidase specific inhibitors, Table 5, Bacterial Inhibitor; cited from earlier work
[4] = Prolyl Oligopeptidase specific inhibitors, Table 5; read-out: Potency Ki; cited from earlier work

For `O=C[C@@H]1CCCN1C(=O)CCC(=O)NCc1ccc(Cl)cc1` [ONO-1603], the IC50 (Prolyl Oligopeptidase; [2]) is given as 57 nM.

In the case of `CC(C)CC/C=C/C(=O)NC1CCCNC(=O)C(CC(C)C)NC(=O)C(=O)C(C)NC1=O` (stereo not drawn) [Eurystatin A], the “Potency IC50” value (Prolyl Oligopeptidase; [3]) is given as “IC50 = 0.004 μg/mL”.

For `O=C(CO)[C@@H]1CCCN1C(=O)[C@@H]1CCCN1C(=O)NCc1ccccc1` [JTP-4819], the “PO sensitivity to inhibitor” value [1] is given as “sensitive”, the IC50 (Prolyl Oligopeptidase; [2]) is given as 0.83 nM and the Ki (Prolyl Oligopeptidase; [4]) is given as 0.045 nM.

In the case of `CCC(C)CC/C=C/C(=O)NC1CCCNC(=O)C(CC(C)C)NC(=O)C(=O)C(C)NC1=O` (stereo not drawn) [Eurystatin B], the “Potency IC50” value (Prolyl Oligopeptidase; [3]) is listed as “IC50 = 0.002 μg/mL”.

For `CC(NC(=O)OCC1c2ccccc2-c2ccccc21)C(=O)N1CCCC1C#N` (stereo not drawn) [Fmoc-Ala-Pro-CN], the Ki (Prolyl Oligopeptidase; [4]) is given as 5 nM.

In the case of `CN[C@@H]1C[C@H]2O[C@@](C)([C@@H]1OC)n1c3ccccc3c3c4c(c5c6ccccc6n2c5c31)C(=O)NC4` [Staurosporine], the Ki (Prolyl Oligopeptidase; read-out: Potency Ki; Prolyl Oligopeptidase specific inhibitors, Table 5; cited from earlier work) is given as 700 nM.

In the case of `N#CC1CCCN1C(=O)C1CCCN1C(=O)OCC1c2ccccc2-c2ccccc21` (stereo not drawn) [Fmoc-Pro-Pro-CN], the Ki (Prolyl Oligopeptidase; [4]) is given as 5 nM.

In the case of `O=CC1CCCN1C(=O)C1Cc2ccccc2N1C(=O)OCc1ccccc1` (stereo not drawn) [Z-Indolinyl-Prolinal], the Ki (Prolyl Oligopeptidase; [4]) is given as 2.4 nM.

For Propeptin, the Ki (Prolyl Oligopeptidase; [4]) is listed as 700 nM.

For `O=C(C1CCCN1C(=O)OCc1ccccc1)N1CCC(F)C1` (stereo not drawn) [Z-Pro-3-fluoropyrrolidine], the Ki (Prolyl Oligopeptidase; [4]) is given as 0.8 nM.

For Postatin, the “Potency IC50” value (Prolyl Oligopeptidase; [3]) is listed as “IC50 = 0.03 μg/mL”.

In the case of `C[C@H](N)C(=O)N1CCC[C@H]1C(=O)Nc1ccc2c(C(F)(F)F)cc(=O)oc2c1` [Ala-Pro-7-amino-4-trifluoromethylcoumarin] (H-Ala-Pro-{AFC}), the “Seprase activity towards substrate” value (Seprase) is reported as “markedly less activity”.

For `COc1cccc2c1C(=O)c1ccc3c(c1C2=O)C(=O)C[C@@H](C)[C@H]3O` [SNA-8073-B], the Ki (Prolyl Oligopeptidase; [4]) is listed as 8000 nM.
